For series [1], the system named is HO-1. Briefly: HO-1 protein expression by Western blot, DU145. Conditions: DU145, 10 μM, 48 h. Type of series: cell-based. On the procedure:
(§1) Proteins were extracted from total cell lysate, as previously described.[61] Briefly, cell lines were added to a buffer containing 20 mM Tris (pH 7.4), 2 mM EDTA, 0.5 mM EGTA, 50 mM mercaptoethanol, and […] sucrose supplemented with phosphatase and protease inhibitor cocktails (Roche Diagnostics, Monza, Italy). Subsequently, protein samples were sonicated twice for 20′ by using an ultrasonic probe, followed by centrifugation at 10 000g for 10 min at 4 °C. Sample proteins (30 μg) were diluted in 4X NuPage LDS sample buffer (Invitrogen, NP0007), heated at 80 °C for 5 min, and then separated on a Biorad Criterion XT 4–15% Bis–Tris gel (BIO-RAD) by electrophoresis and then transferred to a PVDF membrane (BIO-RAD). Blots were blocked using the Odyssey Blocking Buffer (LI-COR Biosciences) and probed with appropriate antibodies: HO-1 antibody (GeneTex GTX101147), goat polyclonal anti-VEGF (cat. no. sc-1836, Santa Cruz Biotechnology), and rabbit polyclonal anti-β-tubulin (cat n.sc-9104, Santa Cruz Biotechnology) and β-actin antibody (GeneTex GTX109639).
(§2) The secondary antibodies goat antirabbit (Odyssey, #926-32211; Odyssey #926-68021) and donkey antigoat IRDye 800CW (cat #926-32214; Li-Cor Biosciences) were used at 1:7000. Blots were scanned, and densitometric analysis was performed with the Odyssey Infrared Imaging System. Values were normalized to β-actin and to β-tubulin.

In series [2] the test system is HO-1. Briefly: HO-1 protein expression by Western blot, A549. In kind it is cell-based, human. Conditions: A549, 10 μM, 48 h. On the procedure: as §1, §2
(In general: A western blot detects proteins with antibodies after separation by electrophoresis.)

In series [3] the test system is HO-1. Briefly: HO-1 immunolocalization (immunofluorescence) in U87MG. In kind it is cell-based, human. Conditions: 10 μM, 48 h. On the procedure: To determine the cellular distribution of heme oxygenase-1 in tumor cells, immunofluorescence analysis was performed as previously described.[62] Tumor cell lines were cultured on glass coverslips fixed in 4% paraformaldehyde in PBS (15′ at room temperature), permeabilized with 0.2% of Triton X100, blocked with 0.1% of BSA in PBS, and then probed with rabbit HO-1 antibody. […] DNA was counterstained stained with DAPI (#940110, Vector Laboratories). After a series of PBS and double-distilled water washes, the fixed cells were cover-slipped with the Vectashield mounting medium (Vector Laboratories, Inc., Burlingame, CA). Localization of the antibody was performed by Zeiss fluorescent microscopy.

The next series relates to VEGF. The series can be described thus: VEGF intracellular expression by Western blot, U87MG. In kind it is cell-based, human. Conditions: 10 μM, 48 h. On the procedure: as §1, §2
In a further series the target is T1, human CYP3A4 (Homo sapiens, UniProt P08684).
T1 construct: Eurofins Scientific (contract assay) 391
T1 sequence (P08684 whole entry): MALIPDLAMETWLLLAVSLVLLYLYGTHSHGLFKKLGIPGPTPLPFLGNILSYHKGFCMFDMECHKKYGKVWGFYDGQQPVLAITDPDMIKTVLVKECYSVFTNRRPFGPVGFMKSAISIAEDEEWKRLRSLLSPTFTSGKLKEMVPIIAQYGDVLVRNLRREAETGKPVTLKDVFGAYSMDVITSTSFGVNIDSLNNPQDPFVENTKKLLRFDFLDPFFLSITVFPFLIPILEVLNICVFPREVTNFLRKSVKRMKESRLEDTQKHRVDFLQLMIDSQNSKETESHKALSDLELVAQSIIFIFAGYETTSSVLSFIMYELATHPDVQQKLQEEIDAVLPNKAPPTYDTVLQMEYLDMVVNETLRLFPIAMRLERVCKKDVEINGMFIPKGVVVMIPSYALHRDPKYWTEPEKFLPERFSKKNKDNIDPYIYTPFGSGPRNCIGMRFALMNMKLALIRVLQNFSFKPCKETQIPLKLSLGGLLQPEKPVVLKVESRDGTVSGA
The series can be described thus: CYP3A4 inhibition (Eurofins). In kind it is in vitro ADME. The text has this: (§3) In vitro ADMET testing has been performed at Eurofins Scientific.

A short description of series [4]: Microsomal stability, human liver microsome assay (Eurofins). In kind it is in vitro ADME. Conditions: human liver microsomes, protein 0.1 mg/mL.
Text: as §3
In general terms: Microsomes from liver hold many membrane-bound enzymes, among them those of drug oxidation.

In a further series the test system is VEGF-A. Briefly: VEGF-A release in conditioned media, ELISA, U87MG. Type of series: cell-based, human. Conditions: 10 μM, 48 h. On the procedure: VEGF-A release in conditioned media was measured using the ELISA sandwich enzymatic method with specific anti-VEGF-A (cat. No. ELH-VEGF) antibodies coated on a 96-well plate, according to the manufacturer’s guidelines. Briefly, confluent U87MG cells grown in media supplemented with 1% FBS were treated for 48 h with 10 μM of 7l. Standards and supernatants from samples were pipetted into the wells containing the immobilized VEGF antibody. The wells were then washed before adding a biotinylated antihuman VEGF antibody. Following incubation, the unbound biotinylated antibody was washed off, and HRP-conjugated streptavidin was pipetted in each well. After an additional wash step, a TMB substrate solution was added to each well, resulting in blue coloration proportional to the amount of bound VEGF. Finally, the stop solution was added, and the colorimetric intensity of the blue substrate now turned yellow was measured at 450 nm.

Series [5] is described as follows: Aqueous solubility in simulated gastric fluid (Eurofins). In kind it is physicochemical. On the procedure:
In vitro ADMET testing has been performed at Eurofins Scientific. Aqueous solubility in simulated gastric fluid (catalogue product number 2061), intrinsic clearance in liver microsome-human (catalogue product number 607), CYP2D6 and CYP3A4 inhibition (catalogue product numbers 1338 and 391, respectively), and hERG human potassium ion channel binding (catalogue product number 4094) were conducted at Eurofins following their experimental protocols (https://www.eurofins.com/).

≈ marks a conversion by molar mass, not a printed value.

As for `CN(C(=O)Cn1ccnc1)C(c1ccccc1)c1ccc(I)cc1` (stereo not drawn) [7n, 2-(1H-Imidazol-1-yl)-N-((4-iodophenyl)(phenyl)methyl)-N-methylacetamide], the “HO-1 protein expression (in words)” value in the series with HO-1 [1] is “reduced HO-1 protein expression”.

Turning to `CN(C(=O)Cn1ccnc1)C(c1ccccc1)c1ccc(OCc2ccccc2)cc1` (stereo not drawn) [7o, N-((4-(Benzyloxy)phenyl)(phenyl)methyl)-2-(1H-imidazol-1-yl)-N-methylacetamide], in the series with HO-1 [2], the “HO-1 protein expression (in words)” value was “upregulated its expression”.

Usually IC50 stands for the point on the concentration scale where inhibition reaches its midpoint. Low readings indicate higher potency, high ones lower potency. Broadly, the microsomal CLint is the rate of metabolic loss divided by the concentration. The low end stands for greater metabolic stability, the high end for faster metabolism. The solubility is the dissolved amount per volume that the medium holds. A high value points to a readily soluble substance. Consider `CN(C(=O)Cn1ccnc1)C(c1ccccc1)c1ccc(Cl)cc1` (stereo not drawn) [7l, N-((4-Chlorophenyl)(phenyl)methyl)-2-(1H-imidazol-1-yl)-N-methylacetamide], for which the “HO-1 immunoreactivity (in words)” value with HO-1 [3] is listed as “reduced the immunoreactivity of HO-1”. Moreover, the “VEGF intracellular expression (in words)” value with VEGF is “significant reduction”. This molecule also had an IC50 against human CYP3A4 of 180 nM. In series [4], the microsomal CLint was found to be 58.3 µL/min/mg. In addition, the half-life in series [4] (read-out: microsomal stability t1/2) was 1.98 h. The “VEGF release in the culture medium (in words)” value in the series on VEGF-A is reported as “significant reduction”. In series [5], the concentration in solution (solubility) was 196 µM (≈ 66.5 µg/mL).

Source of the values: paper PMC8474116, “Discovery of Novel Acetamide-Based Heme Oxygenase-1 Inhibitors with Potent In Vitro Antiproliferative Activity” (Journal of Medicinal Chemistry, 2021).
